3 compounds from patent US5153194A, “Thienocycloheptapyridazine compounds and their pharmaceutical use” (Yoshitomi Pharmaceutical Industries, Ltd., priority 1988, dated 1992) can be followed below.

Series [1] relates to tonic convulsion induced by (+) bicuculline. Nature of the series: Anti-bicuculline action (bicuculline-induced tonic convulsion). The conditions noted are these: Mus musculus; oral, 1 hour before (+) bicuculline 0.6 mg/kg i.v.; tonic convulsion within 5 minutes. In kind it is in vivo, mouse (male ddY). As to the method: The anti-bicuculline action test was carried out in accordance with the method described in Life Science, vol. 21, 1779 (1977).
Male ddY mice weighing 20-28 g, 7-14 animals per group, were used. One hour after the oral administration of the test compounds, (+) bicuculline was intravenously administered at the dosage of 0.6 mg/kg, and 50% effective concentration (ED50) was estimated by examining whether tonic convulsion within 5 minutes was caused or not.

Series [2] deals with benzodiazepine (BZP) receptors. Nature of the series: Displacement ability for benzodiazepine (displacement of tritiated diazepam). In kind it is binding, rat (male Wistar. Conditions: displacement of tritiated diazepam (2 nM), rat cerebral cortex synaptosomes, 0° C., 20 minutes, pH 7.4; read-out: Affinity to BZP Receptors, Ki. As to the method:
The experiment for specific affinity to benzodiazepine receptors was carried out in accordance with the method described in Life Science, vol. 20, 2101 (1977).
The crude cynaptosome fraction was isolated from the cerebral cortex of male Wistar rats aged 9-10 weeks, and was suspended in 50 mM Tris-hydrochloric acid buffer solution (pH 7.4) containing 120 mM sodium chloride and 5 mM potassium chloride. These suspensions were used for the experiment.
The test compounds in several different concentrations and tritiated diazepam (in final concentration of 2 nM) were added to the synaptosome suspensions, and the mixtures were incubated at 0° C. for 20 minutes. These suspensions were filtered with Whatman GF/B glassfiber filters. After the filters were washed with the above-mentioned buffer solution, the radioactivity left on the filters was measured with the use of a liquid scintillation counter.
Specific binding was determined by subtracting binding in the presence of 10^-6 M unlabelled diazepam from total binding.
According to the foregoing experimental method, the binding force to benzodiazepine receptors of the compound of the present invention is evaluated from its displacement ability for tritiated diazepam at its binding site, which is represented by Ki value (nM).

A further series has as its system ddY mice. Nature of the series: Acute toxicity. In kind it is in vivo, mouse (male ddY). Conditions: 5 days. An excerpt: Five male ddY mice were used per group.
Series [3] relates to amnesia-induced mice (electroconvulsive shock). Nature of the series: Action on experimental amnesia (ECS-induced amnesia, step-through passive avoidance). In kind it is in vivo, mouse (male ddY). Conditions: 2.5 mg/kg (i.p.) or more, 30 minutes before acquisition trial; retention test 24 hours after. As to the method: Twenty male ddY mice were used per group to investigate the action of the test compounds on learning and memory ability of amnesia-induced mice by observing a step-through passive avoidance reflex. Amnesia-induced animals were prepared by applying electroconvulsive shock (ECS) soon after the acquisition trial and the retention test was carried out 24 hours after the acquisition trial. Test compounds were administered intraperitoneally (i.p.) 30 minutes before the acquisition trial.

Usually ED50 stands for the midpoint of the dose-response relation. A higher ED50 goes with weaker potency. By Ki is commonly meant a dissociation constant, usually derived from enzyme kinetics or from competition with a known ligand. Regarding `Cc1cc2c(s1)CCCC1CC(=O)N(c3ccc(Cl)cc3)N=C21` (stereo not shown) [Example 1, 2-(4-chlorophenyl)-9-methyl-2,4,4a,5,6,7-hexahydro-3H-thieno[2',3':6,7]cyclohepta[1,2-c]pyridazin-3-one], it took a dose of 8.1 mg/kg to reach the 50% effect level in series [1] (ED50). In addition, the Ki in series [2] amounted to 4.8 nM.

Regarding `COc1ccc(N2N=C3c4cc(C)sc4CCCC3CC2=O)cc1` (stereo not shown) [Example 4, 2-(4-methoxyphenyl)-9-methyl-2,4,4a,5,6,7-hexahydro-3H-thieno[2',3':6,7]cyclohepta[1,2-c]pyridazin-3-one], in the series on ddY mice (300 mg/kg i.p., five mice), the “survival, acute toxicity, intraperitoneal” value was “all mice survived for 5 days”. For the same compound, the “survival, acute toxicity, oral” value with ddY mice (1000 mg/kg oral) is “survived for 5 days”. For the same compound, the Ki in series [2] stood at 1.1 nM. In addition, in series [3], the “latency time in the trial of the retention test” value is “significantly prolonged the latency time”.

In the case of `Cc1cc2c(s1)CCCc1cc(=O)n(-c3ccc(Cl)cc3)nc1-2` [Example 5, 2-(4-chlorophenyl)-2,5,6,7-tetrahydro-9-methyl-3H-thieno[2',3':6,7]cyclohepta[1,2-c]pyridazin-3-one], the ED50 in series [1] was 9.8 mg/kg.
